Laboratory results: US8258114B2, “Modulation of glucose-6-phosphatase translocase expression” (Isis Pharmaceuticals, Inc., priority 2004, dated 2012)
Oligonucleotides are written 5' to 3', each unit as a sugar letter and its base; * is a phosphorothioate linkage, no mark a phosphodiester; rarer units and linkages stand in square brackets, end groups in braces. Plain capitals give the bases only. e = 2'-O-(2-methoxyethyl) (MOE); [5mC] = 5-methylcytosine; d = 2'-deoxy (DNA)

What was measured:
Assay type in all cases: cell-based
[1] = tested on: human glucose-6-phosphatase translocase mRNA; assay: Antisense inhibition of human glucose-6-phosphatase translocase mRNA in T-24 cells, real-time PCR (Table 4); settings: 100 nM oligonucleotide, LIPOFECTIN, mRNA by real-time PCR
Method: The transitional cell bladder carcinoma cell line T-24 was obtained from the American Type Culture Collection (ATCC) (Manassas, Va.). T-24 cells were routinely cultured in complete McCoy's 5A basal media (Invitrogen Life Technologies, Carlsbad, Calif.) supplemented with 10% fetal bovine serum (Invitrogen Life Technologies, Carlsbad, Calif.). Cells were routinely passaged by trypsinization and dilution when they reached approximately 90% confluence. Cells were seeded into 96-well plates (Falcon-Primaria #3872) at a density of approximately 4000-6000 cells/well for use in oligomeric compound transfection experiments. When cells reached 65-75% confluency, they were treated with oligonucleotide. […] This transfection mixture was incubated at room temperature for approximately 0.5 hours. For cells grown in 96-well plates, wells were washed once with 100 μL OPTI-MEMTM-1 and then treated with 130 μL of the transfection mixture. Cells grown in 24-well plates or other standard tissue culture plates are treated similarly, using appropriate volumes of medium and oligonucleotide. Cells are treated and data are obtained in duplicate or triplicate. After approximately 4-7 hours of treatment at 37° C., the medium containing the transfection mixture was replaced with fresh culture medium. Cells were harvested 16-24 hours after oligonucleotide treatment. […] Prior to quantitative PCR analysis, primer-probe sets specific to the target gene being measured were evaluated for their ability to be “multiplexed” with a GAPDH amplification reaction. After isolation the RNA is subjected to sequential reverse transcriptase (RT) reaction and real-time PCR, both of which are performed in the same well. RT and PCR reagents were obtained from Invitrogen Life Technologies (Carlsbad, Calif.). […] The RT reaction was carried out by incubation for 30 minutes at 48° C. Following a 10 minute incubation at 95° C. to activate the PLATINUM® Taq, 40 cycles of a two-step PCR protocol were carried out: 95° C. for 15 seconds (denaturation) followed by 60° C. for 1.5 minutes (annealing/extension). Gene target quantities obtained by RT, real-time PCR were normalized using either the expression level of GAPDH, a gene whose expression is constant, or by quantifying total RNA using RiboGreenTM (Molecular Probes, Inc. Eugene, Oreg.). GAPDH expression was quantified by RT, real-time PCR, by being run simultaneously with the target, multiplexing, or separately. Total RNA was quantified using RiboGreenTM RNA quantification reagent (Molecular Probes, Inc. Eugene, Oreg.). A series of oligomeric compounds was designed to target different regions of human glucose-6-phosphatase translocase, using published sequences cited in Table 1. All compounds in Table 4 are chimeric oligonucleotides (“gapmers”) 20 nucleotides in length, composed of a central “gap” region consisting of 10 2'-deoxynucleotides, which is flanked on both sides ([NT]) by five-nucleotide “wings”. The wings are composed of 2'-O-(2-methoxyethyl) nucleotides, also known as 2'-MOE nucleotides. The internucleoside (backbone) linkages are phosphorothioate throughout the oligonucleotide. All cytidine residues are 5-methylcytidines. The compounds were analyzed for their effect on gene target mRNA levels by quantitative real-time PCR as described in other examples herein, using the following primer-probe set designed to hybridize to human glucose-6-phosphatase translocase: Forward primer: [NT] (incorporated herein as SEQ ID NO: 24) Reverse primer: [NT] (incorporated herein as SEQ ID NO: 25) And the PCR probe was: […] (incorporated herein as SEQ ID NO: 26), where FAM is the fluorescent dye and TAMRA is the quencher dye. Data are from experiments in which T-24 cells were treated with 100 nM of the antisense oligonucleotides of the present invention using LIPOFECTINTM. A reduction in expression is expressed as percent inhibition in Table 4. If present, “N.D.” indicates “not determined”. The control oligomeric compound used was SEQ ID NO: 11. […]

[2] = tested on: human glucose-6-phosphatase translocase mRNA; assay: Antisense inhibition of human glucose-6-phosphatase translocase mRNA in HepG2 cells (Table 11); design: concentration or dose not given beside the values; settings: LIPOFECTIN, mRNA by real-time PCR
Method: The human hepatoblastoma cell line HepG2 was obtained from the American Type Culture Collection (Manassas, Va.). HepG2 cells were routinely cultured in Eagle's MEM supplemented with 10% fetal bovine serum, 1 mM non-essential amino acids, and 1 mM sodium pyruvate (Invitrogen Life Technologies, Carlsbad, Calif.). Cells were routinely passaged by trypsinization and dilution when they reached approximately 90% confluence. Multiwell culture plates are prepared for cell culture by coating with a 1:100 dilution of type 1 rat tail collagen (BD Biosciences, Bedford, Mass.) in phosphate-buffered saline. The collagen-containing plates were incubated at 37° C. for approximately 1 hour, after which the collagen was removed and the wells were washed twice with phosphate-buffered saline. Cells were seeded into 96-well plates (Falcon-Primaria #353872, BD Biosciences, Bedford, Mass.) at a density of approximately 8,000 cells/well for use in oligomeric compound transfection experiments.
When cells reached 65-75% confluency, they were treated with oligonucleotide. Oligonucleotide was mixed with LIPOFECTIN™ Invitrogen Life Technologies, Carlsbad, Calif.) in Opti-MEM™-1 reduced serum medium (Invitrogen Life Technologies, Carlsbad, Calif.) to achieve the desired concentration of oligonucleotide and a LIPOFECTIN™ concentration of 2.5 or 3 μg/mL per 100 nM oligonucleotide. This transfection mixture was incubated at room temperature for approximately 0.5 hours. For cells grown in 96-well plates, wells were washed once with 100 μL OPTI-MEM™-1 and then treated with 130 μL of the transfection mixture. Cells grown in 24-well plates or other standard tissue culture plates are treated similarly, using appropriate volumes of medium and oligonucleotide. Cells are treated and data are obtained in duplicate or triplicate. After approximately 4-7 hours of treatment at 37° C., the medium containing the transfection mixture was replaced with fresh culture medium. Cells were harvested 16-24 hours after oligonucleotide treatment.
Quantitation of glucose 6-phosphatase translocase mRNA levels was accomplished by real-time quantitative PCR using the ABI PRISM™ 7600, 7700, or 7900 Sequence Detection System (PE-Applied Biosystems, Foster City, Calif.) according to manufacturer's instructions.
Prior to quantitative PCR analysis, primer-probe sets specific to the target gene being measured were evaluated for their ability to be “multiplexed” with a GAPDH amplification reaction. After isolation the RNA is subjected to sequential reverse transcriptase (RT) reaction and real-time PCR, both of which are performed in the same well. RT and PCR reagents were obtained from Invitrogen Life Technologies (Carlsbad, Calif.). […] The RT reaction was carried out by incubation for 30 minutes at 48° C. Following a 10 minute incubation at 95° C. to activate the PLATINUM® Taq, 40 cycles of a two-step PCR protocol were carried out: 95° C. for 15 seconds (denaturation) followed by 60° C. for 1.5 minutes (annealing/extension).
Gene target quantities obtained by RT, real-time PCR were normalized using either the expression level of GAPDH, a gene whose expression is constant, or by quantifying total RNA using RiboGreen™ (Molecular Probes, Inc. Eugene, Oreg.). GAPDH expression was quantified by RT, real-time PCR, by being run simultaneously with the target, multiplexing, or separately. Total RNA was quantified using RiboGreen™ RNA quantification reagent (Molecular Probes, Inc. Eugene, Oreg.).
A series of oligomeric compounds was designed to target different regions of human glucose-6-phosphatase translocase, using published sequences cited in Table 1. All compounds in Table 4 are chimeric oligonucleotides (“gapmers”) 20 nucleotides in length, composed of a central “gap” region consisting of 10 2′-deoxynucleotides, which is flanked on both sides (5′ and 3′) by five-nucleotide “wings”. The wings are composed of 2′-O-(2-methoxyethyl) nucleotides, also known as 2′-MOE nucleotides. […]

[3] = tested on: mouse glucose-6-phosphatase translocase mRNA; assay: Antisense inhibition of mouse glucose-6-phosphatase translocase mRNA in primary mouse hepatocytes, 150 nM, LIPOFECTIN (Table 22); settings: real-time PCR
Summary of the method: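 Primary CD-1 mouse hepatocytes at 65-75% confluency transfected ~4-7 h at 37° C with 150 nM 5-10-5 2′-MOE gapmer phosphorothioate oligonucleotides plus LIPOFECTIN (2.5 or 3 μg/mL per 100 nM). Harvested 16-24 h post-treatment; mRNA by real-time RT-PCR, normalized to GAPDH or RiboGreen total RNA, expressed as percent inhibition.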

Sequence | % Inhib [1] | % Inhib [2] | % Inhib of mouse glucose-6-phosphatase translocase mRNA levels [3]
AACCACACACAGTGCCCCAG (eA*eA*e[5mC]*e[5mC]*eA*d[5mC]*dA*d[5mC]*dA*d[5mC]*dA*dG*dT*dG*d[5mC]*e[5mC]*e[5mC]*e[5mC]*eA*eG; antisense) [ISIS 194853] | 35% |  | 
AGATAGGGCCAGCGTGCTGC (eA*eG*eA*eT*eA*dG*dG*dG*d[5mC]*d[5mC]*dA*dG*d[5mC]*dG*dT*eG*e[5mC]*eT*eG*e[5mC]; antisense) [ISIS 194832] | 55% |  | 
AGGCAAAGAATATGTTGACC (eA*eG*eG*e[5mC]*eA*dA*dA*dG*dA*dA*dT*dA*dT*dG*dT*eT*eG*eA*e[5mC]*e[5mC]; antisense) [ISIS 194830] | 68% |  | 
ATGGCGAGGGTTCCCGTAGT (eA*eT*eG*eG*e[5mC]*dG*dA*dG*dG*dG*dT*dT*d[5mC]*d[5mC]*d[5mC]*eG*eT*eA*eG*eT; antisense) [ISIS 194831] | 54% |  | 
CACCTATATCCAACTGCGCC (e[5mC]*eA*e[5mC]*e[5mC]*eT*dA*dT*dA*dT*d[5mC]*d[5mC]*dA*dA*d[5mC]*dT*eG*e[5mC]*eG*e[5mC]*e[5mC]; antisense) [ISIS 194837] | 81% |  | 
CAGGGCACTCATGTAGGAGC (e[5mC]*eA*eG*eG*eG*d[5mC]*dA*d[5mC]*dT*d[5mC]*dA*dT*dG*dT*dA*eG*eG*eA*eG*e[5mC]; antisense) [ISIS 194840] | 51% |  | 
CAGGTTCATGCTGGTTGACA (e[5mC]*eA*eG*eG*eT*dT*d[5mC]*dA*dT*dG*d[5mC]*dT*dG*dG*dT*eT*eG*eA*e[5mC]*eA; antisense) [ISIS 145664] |  | 66% | 50%
CAGTTCCCAGATCTGCTGAG (e[5mC]*eA*eG*eT*eT*d[5mC]*d[5mC]*d[5mC]*dA*dG*dA*dT*d[5mC]*dT*dG*e[5mC]*eT*eG*eA*eG; antisense) [ISIS 194851] | 73% |  | 
CAGTTCCTGCTTGCCGCTCT (e[5mC]*eA*eG*eT*eT*d[5mC]*d[5mC]*dT*dG*d[5mC]*dT*dT*dG*d[5mC]*d[5mC]*eG*e[5mC]*eT*e[5mC]*eT; antisense) [ISIS 194856] | 56% |  | 
CATTAGTGCCCTGCAGCTGC (e[5mC]*eA*eT*eT*eA*dG*dT*dG*d[5mC]*d[5mC]*d[5mC]*dT*dG*d[5mC]*dA*eG*e[5mC]*eT*eG*e[5mC]; antisense) [ISIS 194828] | 73% |  | 
CGCCAGCTGTAGCTCTGGGC (e[5mC]*eG*e[5mC]*e[5mC]*eA*dG*d[5mC]*dT*dG*dT*dA*dG*d[5mC]*dT*d[5mC]*eT*eG*eG*eG*e[5mC]; antisense) [ISIS 145667] |  | 54% | 49%
CTGCGCCAGCTGTAGCTCTG (e[5mC]*eT*eG*e[5mC]*eG*d[5mC]*d[5mC]*dA*dG*d[5mC]*dT*dG*dT*dA*dG*e[5mC]*eT*e[5mC]*eT*eG; antisense) [ISIS 145668] |  | 47% | 39%
GCCCACCAAGTGCCAAACTG (eG*e[5mC]*e[5mC]*e[5mC]*eA*d[5mC]*d[5mC]*dA*dA*dG*dT*dG*d[5mC]*d[5mC]*dA*eA*eA*e[5mC]*eT*eG; antisense) [ISIS 145662] |  | 52% | 19%
GGAGACAACCACACACAGTG (eG*eG*eA*eG*eA*d[5mC]*dA*dA*d[5mC]*d[5mC]*dA*d[5mC]*dA*d[5mC]*dA*e[5mC]*eA*eG*eT*eG; antisense) [ISIS 145671] |  | 39% | 25%
GGATAAGGAAGAACTGGCCC (eG*eG*eA*eT*eA*dA*dG*dG*dA*dA*dG*dA*dA*d[5mC]*dT*eG*eG*e[5mC]*e[5mC]*e[5mC]; antisense) [ISIS 145686] |  | 32% | 26%
GGCATGACAAAGGAGAAGGT (eG*eG*e[5mC]*eA*eT*dG*dA*d[5mC]*dA*dA*dA*dG*dG*dA*dG*eA*eA*eG*eG*eT; antisense) [ISIS 145657] |  | 43% | 45%
GGTTCATTGTGGATGAGCAG (eG*eG*eT*eT*e[5mC]*dA*dT*dT*dG*dT*dG*dG*dA*dT*dG*eA*eG*e[5mC]*eA*eG; antisense) [ISIS 145673] |  | 47% | 4%
TGGGCTGCCATGGTAGAAAA (eT*eG*eG*eG*e[5mC]*dT*dG*d[5mC]*d[5mC]*dA*dT*dG*dG*dT*dA*eG*eA*eA*eA*eA; antisense) [ISIS 145652] |  | 50% | 36%
TTGGCAATGGTGCTGAAGGG (eT*eT*eG*eG*e[5mC]*dA*dA*dT*dG*dG*dT*dG*d[5mC]*dT*dG*eA*eA*eG*eG*eG; antisense) [ISIS 145700] |  | 24% | 1%
